# Columns and labels:
# [1] = test system: K562 (chronic myeloid leukemia); test: Cytotoxic MTS assay, K562; type: cell-based, human
# Summary of the method: (§1)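 Read-out was MTS absorbance at 490 nm, converted to tumor cell survival and fitted for the concentration inhibiting growth by 50%. Cells had been incubated with compound for 72 h in DMEM/RPMI 1640 with 10% fetal calf serum.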
# [2] = test system: MRC-5 (noncancerous human lung fibroblasts); test: Cytotoxic MTS assay, MRC-5; type: cell-based
# Summary of the method: (§2)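 IC50 values derive from MTS metabolic staining after 3 days of compound exposure, at least three biological replicates in technical duplicate; SD typically up to 20% of the mean.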
# [3] = test system: CCRF-CEM lymphoblasts; test: BrDU incorporation analysis (DNA synthesis); type: cell-based, human; settings: 24 h, 5 × IC50 (second value of cell)
# Procedure: The effect of compounds on cell cycle distribution was determined to gain insights into the mechanism of its antiproliferative activity. […] For example, as compared with control, the percentage of cells in G2/M phases was increased by treatment with 5 × IC50 μM of compounds for 24 h (Table 4). […] As shown in (Table 4), there was a marked increase in the sub-G1 from 2.91 in untreated cells. 5-Bromo-2-deoxyuridine (BrDU) is incorporated into newly synthesized DNA, and 5-bromouridine (BrU) pulse labeling is therefore commonly used as a proliferation marker. Low BrDU and BrU incorporation into the DNA or RNA, respectively, of treated cells with all compounds at 5 × IC50 reflected inhibition of DNA and RNA synthesis, indicating irreversible apoptotic changes. The percentage of […] cells incorporating 5-bromouridine is proportional to the transcriptional activity of CCRF-CEM cells. Cells were cultivated and processed as described in the previous method. Before harvesting, BrDU 10 µM was added to the cells for pulse-labeling for 30 min. Then, cells were washed by PBS and fixed with −20 °C cold 70% ethanol and stored in a freezer overnight. Before analysis, the samples were incubated on ice for 30 min, washed once with PBS, and re-suspended in 2 M HCl for 30 min at rt to denature their DNA. Following neutralization with a 0.1 M Na2B4O7 (borax) solution, the cells were washed with PBS containing 0.5% Tween-20 and 1% BSA. Next, staining with primary anti-BrDU antibody (Exbio) was performed for 30 min at rt in the dark. Cells were then washed with PBS and stained with secondary anti-mouse-FITC antibody (Sigma) at rt in the dark. After another wash with PBS and incubation with propidium iodide (0.1 mg × mL^−1) and RNase A (0.5 mg × mL^−1) for 1 h at rt in the dark, cells were analyzed by flow cytometry using a 488 nm single beam laser (FACSCalibur, Becton Dickinson, Franklin Lakes, NJ, USA).
# [4] = test system: BJLD (human lung fibroblast doxorubicin-resistant); test: Cytotoxic MTS assay, BJLD; type: cell-based
# Summary of the method: as §1
# [5] = test system: MRC-5LD (noncancerous human lung fibroblasts doxorubicin-resistant); test: Cytotoxic MTS assay, MRC-5LD; type: cell-based
# Summary of the method: as §2
# [6] = test system: CEM-DNR bulk (daunorubicin-resistant subline of CCRF-CEM cells); test: Cytotoxic MTS assay, CEM-DNR; type: cell-based, human
# Summary of the method: as §1
# [7] = test system: HCT116p53−/− (HCT116 with deleted p53 gene); test: Cytotoxic MTS assay, HCT116p53−/−; type: cell-based, human
# Summary of the method: as §1
# [8] = test system: CCRF-CEM lymphoblasts; test: BrDU incorporation analysis (DNA synthesis); type: cell-based, human; settings: 24 h, 1 × IC50 (first value of cell)
SMILES,IC50 [1],IC50 [2],DNA Synthesis (% positive of cells) [3],IC50 [4],IC50 [5],IC50 [6],IC50 [7],DNA Synthesis (% positive of cells) [8]
"COc1ccc(OC)c(C(=O)OCCS(=O)(=O)c2cc[n+]([O-])c3cc(Cl)ccc23)c1 [Compound 65, 2-[(N-Oxide 7-chloroquinolin-4-yl)sulfonyl]ethyl-2,5-dimethoxybenzoate]",5.85 µM,4.95 µM,19.73%,9.68 µM,2.02 µM,8.97 µM,8.26 µM,36.82%
"O=C(OCCS(=O)(=O)c1cc[n+]([O-])c2cc(Cl)ccc12)c1ccc(C(F)(F)F)cc1 [Compound 72, 2-[(N-Oxide 7-chloroquinolin-4-yl)sulfonyl]ethyl-4-(trifluoromethyl)benzoate]",3.02 µM,24.4 µM,4.35%,27 µM,13.9 µM,25.2 µM,16.4 µM,27.07%
"COc1ccc(C(=O)OCCS(=O)(=O)c2cc[n+]([O-])c3cc(Cl)ccc23)cc1[N+](=O)[O-] [Compound 69, 2-[(N-Oxide 7-chloroquinolin-4-yl)sulfonyl]ethyl-4-methoxy-3-nitrobenzoate]",6.49 µM,8.41 µM,4.22%,19.5 µM,2.74 µM,19.1 µM,11.2 µM,34.45%
"COc1ccc(C(=O)OCCS(=O)(=O)c2cc[n+]([O-])c3cc(Cl)ccc23)cc1 [Compound 63, 2-[(N-Oxide 7-chloroquinolin-4-yl)sulfonyl]ethyl-4-methoxybenzoate]",5.38 µM,4 µM,13.54%,12.1 µM,2.91 µM,8.74 µM,16.4 µM,41.06%
"COc1cc(OC)c(C(=O)OCCS(=O)(=O)c2cc[n+]([O-])c3cc(Cl)ccc23)cc1OC [Compound 66, 2-[(N-Oxide 7-chloroquinolin-4-yl)sulfonyl]ethyl-2,4,5-trimethoxybenzoate]",5.3 µM,5.07 µM,9.68%,11 µM,2.3 µM,8.03 µM,7.94 µM,39.87%
"Cc1ccc([N+](=O)[O-])c(C(=O)OCCS(=O)(=O)c2cc[n+]([O-])c3cc(Cl)ccc23)c1 [Compound 70, 2-[(N-Oxide 7-chloroquinolin-4-yl)sulfonyl]ethyl-5-methyl-2-nitrobenzoate]",6.1 µM,22.9 µM,4.88%,> 50 µM,6.47 µM,17.4 µM,8.75 µM,35.58%
"COc1ccccc1C(=O)OCCS(=O)(=O)c1cc[n+]([O-])c2cc(Cl)ccc12 [Compound 68, 2-[(N-Oxide 7-chloroquinolin-4-yl)sulfonyl]ethyl-2-methoxybenzoate]",4.72 µM,4.92 µM,7.18%,10.1 µM,4.17 µM,12.2 µM,8.3 µM,41.27%
